The results in this text go back to patent US9458123B2, “Methods, pharmaceutical compositions, therapeutic systems, and compounds for treating B cell malignancies” (University of Rochester, priority 2012, dated 2016).

The target in assay [1] is T1, Ubc13-Uev1A complex (Homo sapiens, UniProt P61088).
T1 construct: made in house; host or cells: E. coli BL21 (GST-Ubc13); OCI-Ly10 cell lysate (Uev1A)
The assay can be described thus: GST pull-down, in vitro interaction between Ubc13 and Uev1A. The format is binding. The settings on record: GST-Ubc13, OCI-Ly10 cell extract. As for the experimental part: Purified GST or GST-Ubc13 fusion proteins were incubated with the cell extract prepared from OCI-Ly10 cells with or without the presence of NSC697923 as indicated. The amounts of Uev1A protein associated with GST or GST-Ubc13 were analyzed by western blotting. The first lane was loaded with 8% of the input cell lysate. […] The assay was carried out as described in FIG. 4A, except that the loading buffer for SDS-PAGE gel contains no reducing agent, unless otherwise specified, and the reaction was analyzed by western blotting with a Ubc13-specific antibody. […] The assay was carried out as in FIG. 5B, except that UbcHSc, instead of Ubc13 and Uev1A, was used in the ubiquitination reaction and that a UbcHSc antibody was used for western blot analysis. […]
GST-Ubc13 bound on glutathione-agarose beads was incubated with cell lysates prepared from OCI-Ly10 cells, with or without the presence of NSC697923, at 4° C. for 1 hour. […] The amounts of GST-Ubc13 and Uev1A proteins bound to the beads were then analyzed by western blotting.

For assay [2], the target named is T2, Ubc13 (Homo sapiens, UniProt P61088).
T2 construct: purchased Boston Biochem Inc E2-600 (Ubc13); E2-662 (Uev1A)
The assay can be described thus: In vitro Ubc13~Ub thioester conjugate formation. The format is biochemical. The settings on record: E1, Ubc13-Uev1A, ubiquitin, ATP. As for the experimental part:
Purified GST or GST-Ubc13 fusion proteins were incubated with the cell extract prepared from OCI-Ly10 cells with or without the presence of NSC697923 as indicated. The amounts of Uev1A protein associated with GST or GST-Ubc13 were analyzed by western blotting. The first lane was loaded with 8% of the input cell lysate. […] The assay was carried out as described in FIG. 4A, except that the loading buffer for SDS-PAGE gel contains no reducing agent, unless otherwise specified, and the reaction was analyzed by western blotting with a Ubc13-specific antibody. […] The assay was carried out as in FIG. 5B, except that UbcHSc, instead of Ubc13 and Uev1A, was used in the ubiquitination reaction and that a UbcHSc antibody was used for western blot analysis.
For detecting the E2-ubiquitin (Ubc13˜Ub or UbcH5c˜Ub) thioester conjugates, the reactions were carried out as described above without GST-TRAF6. The reactions were terminated with the SDS-sample buffer without a reducing agent unless specified. The products were analyzed by western blotting with an anti-Ubc13 or anti-UbcHSc antibody as indicated.

For assay [3], the system named is ABC DLBCL cells. The assay can be described thus: Growth of ABC DLBCL cells, trypan blue exclusion assay. It counts as cell-based. Particulars: including OCI-Ly3 cells, 24 hours. The method, then: The indicated ABC DLBCL cells were seeded at 3×10^5 cells/ml in 6-well plates and cultured in the presence of DMSO (0.2%, control) or various concentrations of NSC697923 for 24 hours. The live and dead cells were counted using the trypan blue exclusion assay. Shown are the means from three separate experiments. The average number of live cells in the control was set at 100. […] The levels of the indicated proteins were analyzed by western blotting. For caspase 3 detection, a mixture of an antibody for the uncleaved form and an antibody specific for the cleaved form was used. In FIG. 7C, OCI-Ly10 cells were treated as in FIG. 7A. The apoptotic cells (Annexin V positive cells) were measured by flow cytometry as described in Example 1 infra. A representative result from three independent experiments is depicted. […] BrdU was then added into the culture medium for 30 minutes before the cell-cycle distribution of the treated cells was analyzed as described in Example 1 infra. Shown are the averages from two independent experiments. […] BrdU was then added into the culture medium for 30 minutes before the cell-cycle distribution of the treated cells was analyzed as described in Example 1 infra. Shown are the averages from two independent experiments. […]

Assay [4] deals with OCI-Ly10 cells. Kind of assay: Apoptosis of OCI-Ly10 cells (western blot, 7AAD/annexin V flow cytometry). The format is cell-based. The method, then:
The indicated ABC DLBCL cells were seeded at 3×10^5 cells/ml in 6-well plates and cultured in the presence of DMSO (0.2%, control) or various concentrations of NSC697923 for 24 hours. The live and dead cells were counted using the trypan blue exclusion assay. Shown are the means from three separate experiments. The average number of live cells in the control was set at 100. […] The levels of the indicated proteins were analyzed by western blotting. For caspase 3 detection, a mixture of an antibody for the uncleaved form and an antibody specific for the cleaved form was used. In FIG. 7C, OCI-Ly10 cells were treated as in FIG. 7A. The apoptotic cells (Annexin V positive cells) were measured by flow cytometry as described in Example 1 infra. A representative result from three independent experiments is depicted. […] BrdU was then added into the culture medium for 30 minutes before the cell-cycle distribution of the treated cells was analyzed as described in Example 1 infra. Shown are the averages from two independent experiments. […] BrdU was then added into the culture medium for 30 minutes before the cell-cycle distribution of the treated cells was analyzed as described in Example 1 infra. Shown are the averages from two independent experiments.
Apoptosis was assayed using the 7AAD/annexin V apoptosis kit (BD Bioscience) as previously described (Kim et al., “Protein Kinase C-Associated Kinase is Required for NF-kappaB Signaling and Survival in Diffuse Large B-Cell Lymphoma Cells,” Blood 111:1644-1653 (2008), which is hereby incorporated by reference in its entirety). Analysis of the cell cycle distribution of the treated cells was carried out with propidium iodide (PI) and BrdU double staining as previously described (DeRan et al., “Assessing G1-to-S-Phase Progression after Genotoxic Stress,” Methods Mol. Biol. 782:221-230 (2011) and Su et al., “DNA Damage Induces Downregulation of Histone Gene Expression Through the G1 Checkpoint Pathway,” EMBO. J. 23:1133-1143 (2004), each of which is hereby incorporated by reference in its entirety).

Assay [5] has as its system K63-linked ubiquitination and repair protein recruitment in U2OS cells. Kind of assay: DNA double-strand break focus formation after γ-irradiation. The format is cell-based. The settings on record: 1 μM, γ-irradiated 10 Gy. As for the experimental part: Osteosarcoma U2OS cells were pretreated with 1 μM NSC697923 for 1 hour before γ-irradiated (10 Gy). 30 minutes after irradiation, the cells were fixed and stained with the monoclonal antibody FK2, which recognizes protein-conjugated, but not free, ubiquitin and marks the foci formed by K63-linked ubiquitinated proteins at sites of DSBs. […] U2OS cells were treated as described in FIG. 13A except that the focus formation of the indicated proteins is detected with their respective antibodies.

Structures are written as SMILES.

T1 sequence (P61088 whole entry): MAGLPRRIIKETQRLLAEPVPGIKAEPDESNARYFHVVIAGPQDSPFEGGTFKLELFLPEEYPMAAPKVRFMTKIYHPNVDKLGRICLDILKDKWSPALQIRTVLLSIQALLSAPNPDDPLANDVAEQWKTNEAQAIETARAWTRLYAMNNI
T1 sequence (Q13404 whole entry partner): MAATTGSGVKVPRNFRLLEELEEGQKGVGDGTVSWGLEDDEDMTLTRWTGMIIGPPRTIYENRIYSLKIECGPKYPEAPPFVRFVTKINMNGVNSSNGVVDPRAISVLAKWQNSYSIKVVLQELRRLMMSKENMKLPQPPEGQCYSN
T2 sequence (P61088 whole entry): as the sequence (P61088 whole entry) above
T2 sequence (Q13404 whole entry partner): as the sequence (Q13404 whole entry partner) above

Turning to `Cc1ccc(S(=O)(=O)c2ccc([N+](=O)[O-])o2)cc1` [NSC697923, 2-nitro-5-tosylfuran], the “complex formation between Ubc13 and Uev1A” value in assay [1] is “no inhibitory effect”. In addition, the “formation of Ubc13~Ub thioester conjugate” value in assay [2] is reported as “inhibited formation of this thioester conjugate”. Besides, the “proliferation and survival of ABC DLBCL cells” value in assay [3] was “induced proliferation arrest and cell death”. Further, in assay [4] (5 hours), the PARP result is listed as “cleavage of PARP” and the “caspase 3” value is listed as “activation of caspase 3”. Moreover, the “annexin V-positive cells” value in assay [4] (24 hours) is recorded as “increase in annexin V-positive cells”. Moreover, in assay [5], the FK2 focus formation entry is “inhibition of FK2 focus formation”, the “recruitment of 53BP1 to sites of DNA double-strand breaks” value is given as “inhibits recruitment” and the “recruitment of BRCA1 to sites of DNA double-strand breaks” value is given as “inhibits recruitment”.
